The test system of series [1] is HCT116 colon carcinoma xenograft. Description: HCT116 colon carcinoma xenograft efficacy study. The class given is in vivo. Particulars: female scid/bg mice, intraperitoneal, twice daily; FIG. 1. As to the method:
Certain compounds were assayed for in vivo efficacy in xenograft models as follows.
Female scid/bg mice, approximately 6 weeks of age, were implanted subcutaneously on the right flank with 5×10^6 HCT116 cells per mouse in a volume of 100 uL of sterile PBS. When tumors reached a volume of 50-100 mm^3, mice were randomized to groups of n=10 to receive either vehicle or test compound delivered twice daily by intraperitoneal injection. Tumors were measured three times per week using Vernier calipers and tumor volume calculated using the formula: Volume=(Length×Width^2/2), where length and width are the longest perpendicular sides of the tumor. Dosing continued twice daily until control tumors reached a size of 2000 mm^3. Statistical comparisons were made using a 2-way ANOVA with Bonferroni post-test.

In series [2] the target is T1, recombinant form of Glutaminase 1 (GAC) (Homo sapiens, UniProt O94925). Description: Recombinant enzyme assay (GAC, GDH-coupled absorbance, no preincubation). It is filed as biochemical. Particulars: read-out: GAC Delta N2 IC50 no preinc. Here is the method: (§1) Enzymatic reaction was started with the addition of 50 μL of enzyme solution (50 mM Tris-HCl pH 8.0, 0.2 mM EDTA, 150 mM K2HPO4, 0.1 mg/ml BSA, 1 mM DTT, 10 ppm antifoam, 4 units/ml GDH, 4 mM adenosine diphosphate, and 4 nM GAC) and read in a Molecular Devices M5 plate reader at 20° C. The plate reader was configured to read absorbance (λ=340 nm) in kinetic mode for 15 minutes. Data was recorded as milli-absorbance units per minute and slopes were compared to a control compound and a DMSO-only control on the same plate. Compounds with slopes less than the DMSO control were considered inhibitors and plate variability was assessed using the control compound.

Series [3] has as its target T1, recombinant form of Glutaminase 1 (GAC). Description: Recombinant enzyme assay - time dependence (60 minutes enzyme/compound preincubation). The class given is biochemical. The conditions noted are these: read-out: GAC Delta N2 IC50 60 min preinc. As to the method: as §1, with “The enzyme/compound mix was sealed with sealing foil (USA Scientific) and allowed to incubate, with mild agitation, for 60 minutes at 20° C. Enzymatic” for “Enzymatic”, “substrate” for “enzyme”, “DTT, 20 mM L-glutamine, 2 mM NAD^+, and” for “DTT,”, “antifoam)” for “antifoam, 4 units/ml GDH, 4 mM adenosine diphosphate, and 4 nM GAC)”

The next series deals with P493-6 (myc "on") cells. Description: Cell proliferation assay (72 hrs, Cell Titer Glo or Viacount FACS). The class given is cell-based. Particulars: read-out: Cell prolif P493 72 h IC50; P493 cells, 72 h. As to the method:
P493-6 (myc “on”) cells were maintained in growth media (RPMI-1640, 10% FBS, 2 mM glutamine, 100 units/ml Penicillin and 100 μg/ml streptomycin) at 37° C. with 5% CO2. For compound assay, P493-6 cells were plated in 96-well V-bottom plates on the day of compound addition in 50 μl of growth media at a cell density of 200,000 cells/ml (10,000 cells/well). Compounds were serially diluted in 100% DMSO at 200-times the final concentration. Compounds were diluted 100-fold into growth media and then 50 μl of this mixture was added to cell plates making the final concentration of DMSO 0.5%. Cells were incubated with compound for 72 hrs at 37° C. with 5% CO2 and analyzed for antiproliferative effects either by Cell Titer Glo (Promega) or FACS analysis using the Viacount (Millipore) kit on the Guava instrument.
A general note: In ATP-based viability assays light output follows the ATP content of the culture.

Series [4] can be described thus: Solubility (vortex mixed at room temperature, filtered, HPLC quantitation). It is filed as physicochemical. Here is the method:
Ca. 1 mg portions of test article were combined with 120 μL solvent in wells of a 96×2 mL polypropylene plate. […] The contents of all wells were then filtered through a 0.45 μm GHP filter plate to yield clear filtrates. 5 μL of each filtrate was diluted into 100 μL DMF and vortex mixed to yield HPLC samples. Duplicate quantitation standards for each test article were prepared by diluting weighed portions of solid test article in measured volumes of DMF. 2 μL of each HPLC sample and quantitation standard were analyzed by HPLC using the method outlined in Table 5. Dissolved test article concentrations were calculated by peak area ratio against the appropriate quantitation standards.

A further series relates to Caco-2 cell monolayers. The experiment in a line: Caco-2 permeability assay (bidirectional). It is filed as in vitro ADME. An excerpt: Caco-2 cells are commonly used in a confluent monolayer on a cell culture insert filter. When cultured in this format and under specific conditions, the cells become differentiated and polarized such that their phenotype, morphologically and functionally resembles the enterocytes lining the small intestine. The cell monolayer provides a physical and biochemical barrier to the passage of small molecules, and is widely used across the pharmaceutical industry as an in vitro model of the human small intestinal mucosa to predict the absorption of orally administered drugs (Hidalgo et al., Gastroenterology, 1989; Artursson, J. Pharm. Sci., 1990). The correlation between the in vitro apparent permeability (P ? app) across Caco-2 monolayers and the in vivo absorption is well established (Artursson et al., Biochem. Biophys. Res. Comm., 1991).
The present assay was used to determine the bidirectional permeability of the compounds of the invention through Caco-2 cell monolayers. Caco-2 cells were grown in confluent monolayers where the media of both the apical (A) and basolateral (B) sides were at pH 7.4. Compounds were dosed at 1 μM in the presence of 200 μM Lucifer Yellow, on the apical side (A→B) or the basolateral side (B→A) for assessment, in duplicate.

Converted amounts (≈) assume the structure as drawn.

As for `O=C(CCN1CCOCC1)OCC(C(=O)Nc1nnc(CCCCc2nnc(NC(=O)C(COC(=O)CCN3CCOCC3)c3ccccc3)s2)s1)c1ccccc1` (stereo not shown) [Compound 188, {[5,5′-(butane-1,4-diyl)-bis(1,3,4-thiadiazole-5,2-diyl)]-bis(azanediyl)}-bis(3-oxo-2-phenylpropane-3,1-diyl)-bis(3-morpholinopropanoate)], the tumor size result in series [1] is on record as “reduced tumor size”.

`NCc1cccc(CC(=O)Nc2nnc(CCCCc3nnc(NC(=O)Cc4cccc(CN)c4)s3)s2)c1` [Compound 325]: the results for the IC50 (in series [2]; in series [3]; in the series with P493-6 (myc "on") cells) were 660 nM, 170 nM and 30 nM, respectively. In the case of `CCCC(=O)OCN(C(=O)Cc1ccccc1)c1nnc(CCCCc2ccc(NC(=O)Cc3ccccc3)nn2)s1` [Compound 402], the Solubility in series [4] (10% CrEL/50 mM cit) amounted to 157 µg/mL (≈ 0.268 mM); in series [4] (PEG400), 30179 µg/mL (≈ 51.4 mM). In series [4] (PG), `O=C(Cc1cccc(OC(F)(F)F)c1)Nc1ccc(CCCCc2nnc(NC(=O)C(O)c3cccc(Cl)c3)s2)nn1` (stereo not shown) [Compound 447] came in with a Solubility of 8265 µg/mL (≈ 13.3 mM). `O=C(Cc1cccc(OC(F)(F)F)c1)Nc1ccc(CCCCc2nnc(NC(=O)Cc3ccccc3)s2)nn1` [Compound 585] yielded a Solubility in series [4] (Capryol 90) of 1744 µg/mL (≈ 3.06 mM). On to `O=C(Cc1cccc(OC(F)(F)F)c1)Nc1ccc(CCCCc2nnc(NC(=O)Cc3cccc(F)c3)s2)nn1` [Compound 679], for which the “Significant Efflux” value in the series on Caco-2 cell monolayers is on record as “No”. For `O=C(Cc1cccc(OC(F)(F)F)c1)Nc1ccc(CCCCc2nnc(NC(=O)[C@@H](O)c3ccccc3)s2)nn1` [Compound 703], the Solubility in series [4] (20% HPBCD/50 mM cit) was 651 µg/mL (≈ 1.11 mM).

In general, Solubility refers to the dissolved amount per volume that the medium holds. High values mean a readily soluble substance, low ones a poorly soluble substance.

Source of the values: US9938267B2, “Heterocyclic inhibitors of glutaminase” (Calithera Biosciences, Inc., priority 2011, dated 2018).
